The NIST ThermoML archive (doi:10.1021/je7000446)

Experiment: relative permittivity at various frequencies (dimensionless)
Conditions: Fluid (supercritical or subcritical phases), Frequency=0.06 MHz, Parallel plate capacitor

COC(F)(F)C(F)(F)F [methyl pentafluoroethyl ether]
Conditions | relative permittivity
312.9 K, 1500 kPa | 6.94
312.9 K, 3200 kPa | 7
312.9 K, 6100 kPa | 7.08
312.9 K, 8300 kPa | 7.14
312.9 K, 10400 kPa | 7.2
312.9 K, 12500 kPa | 7.25
312.9 K, 14400 kPa | 7.29
312.9 K, 16500 kPa | 7.34
312.9 K, 18300 kPa | 7.37
312.9 K, 26200 kPa | 7.51
312.9 K, 27800 kPa | 7.53
318 K, 1500 kPa | 6.78
318 K, 3200 kPa | 6.85
318 K, 6300 kPa | 6.95
318 K, 8300 kPa | 7.01
318 K, 10400 kPa | 7.06
318 K, 12400 kPa | 7.11
318 K, 14100 kPa | 7.15
318 K, 16400 kPa | 7.19
318 K, 18300 kPa | 7.22
318 K, 20400 kPa | 7.27
318 K, 22200 kPa | 7.29
318 K, 23800 kPa | 7.31
323.4 K, 2000 kPa | 6.65
323.4 K, 3200 kPa | 6.69
323.4 K, 4400 kPa | 6.73
323.4 K, 6600 kPa | 6.79
323.4 K, 8300 kPa | 6.84
323.4 K, 10100 kPa | 6.89
323.4 K, 12200 kPa | 6.94
323.4 K, 14000 kPa | 7
323.4 K, 16000 kPa | 7.05
323.4 K, 18000 kPa | 7.09
323.4 K, 20000 kPa | 7.12
323.4 K, 22200 kPa | 7.16
323.4 K, 24400 kPa | 7.2
323.4 K, 26300 kPa | 7.24
323.4 K, 28400 kPa | 7.27
